Read-outs that look alike come from different tables or passages of the source.
Assays:
CCRF-CEM = test: NCI-60 screening, one-dose (10 µM) and five-dose, SRB; format: cell-based, human; settings: Homo sapiens, 10 μM, Leukemia, read-out: Growth percentage
MOLT-4 = test: as above; format: cell-based, human; settings: Homo sapiens; 10 μM; MOLT-4, Leukemia; read-out: Growth percentage
SR = test: as above; format: cell-based, human; settings: 10 μM, Leukemia
A549/ATCC = test: as above; format: cell-based, human; settings: Homo sapiens, 10 μM, Non-Small-Cell Lung Cancer, read-out: Growth percentage
EKVX = test: as above; format: cell-based, human; settings: Homo sapiens, 10 μM, Non-Small-Cell Lung Cancer, read-out: Growth percentage
HOP-92 = test: as above; format: cell-based, human; settings: Homo sapiens; 10 μM; HOP-92, Non-Small-Cell Lung Cancer; read-out: Growth percentage
NCI-H226 = test: as above; format: cell-based, human; settings: Homo sapiens; 10 μM; NCI-H226, Non-Small-Cell Lung Cancer; read-out: Growth percentage
NCI-H23 = test: as above; format: cell-based, human; settings: Homo sapiens; 10 μM; NCI-H23, Non-Small-Cell Lung Cancer; read-out: Growth percentage
NCI-H460 = test: as above; format: cell-based, human; settings: Homo sapiens, NCI-H460, 10 μM; NCI-H460, Non-Small-Cell Lung Cancer; read-out: Growth percentage
NCI-H522 = test: as above; format: cell-based, human; settings: Homo sapiens; 10 μM; NCI-H522, Non-Small-Cell Lung Cancer; read-out: Growth percentage
COLO 205 = test: as above; format: cell-based, human; settings: Homo sapiens; 10 μM; COLO 205, Colon Cancer; read-out: Growth percentage
SF-268 = test: as above; format: cell-based, human; settings: Homo sapiens; 10 μM; SF-268, CNS Cancer; read-out: Growth percentage
SF-539 = test: as above; format: cell-based, human; settings: Homo sapiens, SF-539, 10 μM; SF-539, CNS Cancer; read-out: Growth percentage
U251 = test: as above; format: cell-based, human; settings: Homo sapiens, U-251; 10 μM; U251, CNS Cancer; read-out: Growth percentage
MDA-MB-435 = test: as above; format: cell-based; settings: Homo sapiens, MDA-MB-435, read-out: Growth percentage, 10 μM; MDA-MB-435, Melanoma
SK-MEL-2 = test: as above; format: cell-based, human; settings: Homo sapiens; 10 μM; SK-MEL-2, Melanoma; read-out: Growth percentage
SK-MEL-28 = test: as above; format: cell-based, human; settings: Homo sapiens; 10 μM; SK-MEL-28, Melanoma; read-out: Growth percentage
UACC-62 = test: as above; format: cell-based; settings: Homo sapiens; 10 μM; UACC-62, Melanoma; read-out: Growth percentage
OVCAR-3 = test: as above; format: cell-based; settings: Homo sapiens; 10 μM; OVCAR-3, Ovarian Cancer; read-out: Growth percentage
OVCAR-4 = test: as above; format: cell-based, human; settings: Homo sapiens; 10 μM; OVCAR-4, Ovarian Cancer; read-out: Growth percentage
OVCAR-8 = test: as above; format: cell-based, human; settings: Homo sapiens; 10 μM; OVCAR-8, Ovarian Cancer; read-out: Growth percentage
SK-OV-3 = test: as above; format: cell-based, human; settings: Homo sapiens; 10 μM; SK-OV-3, Ovarian Cancer; read-out: Growth percentage
ACHN = test: as above; format: cell-based, human; settings: Homo sapiens, 10 μM, Renal Cancer, read-out: Growth percentage
CAKI-1 = test: as above; format: cell-based; settings: Homo sapiens; 10 μM; CAKI-1, Renal Cancer; read-out: Growth percentage
RXF 393 = test: as above; format: cell-based; settings: Homo sapiens
TK-10 = test: as above; format: cell-based, human; settings: Homo sapiens; 10 μM; TK-10, Renal Cancer; read-out: Growth percentage
BT-549 = test: as above; format: cell-based; settings: Homo sapiens
T-47D = test: as above; format: cell-based, human; settings: 10 μM, Breast Cancer
MDA-MB-468 = test: as above; format: cell-based, human; settings: Homo sapiens, MDA-MB-468, 10 μM; MDA-MB-468, Breast Cancer; read-out: Growth percentage
From the text: Control cells Test cells FLD
available usually at NCI library.
An aliquot of frozen drug concentrate is […]

[1] = system: 60 human cancer cell lines; test: NCI-60 screening, full panel (mean growth, MID a, ranges over all lines); settings: Homo sapiens, read-out: Mean growth percentage

SMILES: Cc1nc(SCC(=O)N2CCN(c3cc4c(cc3F)c(=O)c(C(=O)O)cn4C3CC3)CC2)sc1C(=O)/C=C/c1ccc(F)cc1 [Compound 4e, (E)-1-Cyclopropyl-6-fluoro-7-(4-(2-((5-(3-(4-fluorophenyl)acryloyl)-4-methylthiazol-2-yl)thio)acetyl)piperazin-1-yl)-4-oxo-1,4-dihydroquinoline-3-carboxylic Acid]
- activity at 10 µM (CCRF-CEM): 104%
- activity at 10 µM (MOLT-4): 105%
- Growth percentage (SR): 55.6%
- activity at 10 µM (A549/ATCC): 104%
- activity at 10 µM (EKVX): 108%
- activity at 10 µM (HOP-92): 98%
- activity at 10 µM (NCI-H226): 98.3%
- activity at 10 µM (NCI-H23): 101%
- activity at 10 µM (NCI-H460): 108%
- activity at 10 µM (NCI-H522): 98.2%
- activity at 10 µM (COLO 205): 119%
- activity at 10 µM (SF-268): 111%
- activity at 10 µM (SF-539): 99%
- activity at 10 µM (U251): 114%
- activity at 10 µM (MDA-MB-435): 104%
- activity at 10 µM (SK-MEL-2): 104%
- activity at 10 µM (SK-MEL-28): 116%
- activity at 10 µM (UACC-62): 99.6%
- activity at 10 µM (OVCAR-3): 116%
- activity at 10 µM (OVCAR-4): 102%
- activity at 10 µM (OVCAR-8): 105%
- activity at 10 µM (SK-OV-3): 114%
- activity at 10 µM (ACHN): 98.9%
- activity at 10 µM (CAKI-1): 97.4%
- activity at 10 µM (RXF 393; 10 μM, RXF 393, Renal Cancer, read-out: Growth percentage): 95.9%
- activity at 10 µM (TK-10): 103%
- activity at 10 µM (BT-549; 10 μM, BT-549, Breast Cancer, read-out: Growth percentage): 102%
- Growth percentage (T-47D): 95.6%
- activity at 10 µM (MDA-MB-468): 106%
- activity at 10 µM [1]: 100%

SMILES: Cc1nc(SCC(=O)N2CCN(c3cc4c(cc3F)c(=O)c(C(=O)O)cn4C3CC3)CC2)sc1C(=O)/C=C/c1ccc(Br)cc1 [Compound 4f, (E)-7-(4-(2-((5-(3-(4-Bromophenyl)acryloyl)-4-methylthiazol-2-yl)thio)acetyl)piperazin-1-yl)-1-cyclopropyl-6-fluoro-4-oxo-1,4-dihydroquinoline-3-carboxylic Acid]
- activity at 10 µM (CCRF-CEM): 106%
- activity at 10 µM (MOLT-4): 96.2%
- Growth percentage (SR): 56.5%
- activity at 10 µM (A549/ATCC): 107%
- activity at 10 µM (EKVX): 107%
- activity at 10 µM (HOP-92): 115%
- activity at 10 µM (NCI-H226): 107%
- activity at 10 µM (NCI-H23): 102%
- activity at 10 µM (NCI-H460): 107%
- activity at 10 µM (NCI-H522): 105%
- activity at 10 µM (COLO 205): 112%
- activity at 10 µM (SF-268): 116%
- activity at 10 µM (SF-539): 89.9%
- activity at 10 µM (U251): 98.4%
- activity at 10 µM (MDA-MB-435): 107%
- activity at 10 µM (SK-MEL-2): 105%
- activity at 10 µM (SK-MEL-28): 114%
- activity at 10 µM (UACC-62): 105%
- activity at 10 µM (OVCAR-3): 170%
- activity at 10 µM (OVCAR-4): 102%
- activity at 10 µM (OVCAR-8): 75%
- activity at 10 µM (SK-OV-3): 110%
- activity at 10 µM (ACHN): 107%
- activity at 10 µM (CAKI-1): 101%
- activity at 10 µM (RXF 393; RXF 393, read-out: Growth percentage): 107%
- activity at 10 µM (TK-10): 108%
- activity at 10 µM (BT-549; BT-549, read-out: Growth percentage): 107%
- Growth percentage (T-47D): 89.3%
- activity at 10 µM (MDA-MB-468): 109%
- activity at 10 µM [1]: 102%
